Counter-ions that a name gives are not always drawn.
What was measured:
Type in all cases: cell-based
[1] = tested on: Bacteria mixture (Pseudomonas spp. DSM 33933, Pseudomonas aeruginosa DSM 33935, Pseudomonas oleovorans DSM 33936, Pseudomonas spec. DSM 33937, Pseudomonas …); test: Stability of emulsion paint against microbial infestation, inoculated with bacteria mixture, semiquantitative streak evaluation; design: key: 0: No growth; Minimal growth, 1 to 10 colonies visible over the entire streak; 2: Light growth, maximum 100 colonies; Moderate growth, maximum 300 to 400 colonies; Uniform growth, >400 colonies, single colonies still clearly recognizable; 5: Heavy growth, too many colonies to count, but no growth over the entire streak; 6: Full growth, barely any single colonies still apparent, growth over the entire streak; details: for Bacterial growth Day 1: directly after inoculation; for Bacterial growth Day 6: incubation at 30° C.
Experimental: The detergent was a heavy-duty laundry detergent without preservatives (pH 8.1), and the cleaning composition was an all-purpose detergent without preservatives (pH 7.6), each likewise made in the laboratory, without addition of the otherwise usual conventional preservatives. To each paint was added—individually and in combination—particular concentrations of guanidinium hydrochloride and benzisothiazolinone (BIT). The detergent and cleaning composition were admixed with particular concentrations of guanidinium hydrochloride and benzisothiazolinone (BIT). The resultant batches of the paint thus prepared were inoculated with a mixture of various bacteria; the batches of the detergent and cleaning composition thus prepared were inoculated with a yeast mixture. • Pseudomonas spp. (Pseudomonas oleovorans group) DSM 33933 • Pseudomonas aeruginosa DSM 33935 • Pseudomonas oleovorans DSM 33936 • Pseudomonas spec. DSM 33937 • Pseudomonas aeruginosa DSM 33938 The inoculum was added to the respective sample in each inoculation at 2% (v/w) as a fresh cell suspension in a physiological saline solution (0.9% NaCl). The cell count of the inoculum added was 10^9/ml for the bacteria mixture, 10^8/ml for the yeast mixture, consisting in equal parts of the individual bacteria strains or yeast strains. The cell suspension of the bacteria mixture was produced by growing the individual bacteria at 30° C. for 24 h in liquid culture on a shaker. The growth medium used for the bacteria was Müller-Hinton liquid medium. After growing, the individual liquid cultures were centrifuged, and the cells were resuspended in physiological saline solution. In order to adjust the mixture to a total cell count of 10^9/ml, the individual bacteria suspensions, if necessary, were diluted accordingly before being combined with saline solution. The cell count of the inoculum was determined in each case by chamber counting. In examples 2 to 4, the samples were inoculated once with the respective cell suspensions (2% v/w) and the development of the bacteria or yeasts was followed by a semiquantitative evaluation method. In the inoculated samples, microbial infestation was evaluated in each case directly after inoculation on day 1 and on day 6 (emulsion paint) after incubation at 30° C. for a further 5 days, or on day 3 (detergent, cleaning composition) after incubation at 30° C. for a further 2 days. For this purpose, an aliquot was taken from each sample after homogenization using a sterile plastic inoculation loop (10 μl) and streaked evenly on agar plates (tryptic soy agar in the case of bacteria, Sabouraud glucose-agar in the case of yeasts). […] After incubation, the bacterial or yeast colonies that had grown on the agar plates were visually evaluated and quantified according to the following scheme: [table] […]

[2] = tested on: Yeast mixture (Pichia manshurica DSM 12249, Rhodotorula mucilaginosa DSM 12248, Candida boidinii DSM 13622, Candida albicans DSM 1386); test: Stability of heavy-duty laundry detergent against microbial infestation, inoculated with yeast mixture, semiquantitative streak evaluation; design: key: 0: No growth; Minimal growth, 1 to 10 colonies visible over the entire streak; 2: Light growth, maximum 100 colonies; Moderate growth, maximum 300 to 400 colonies; Uniform growth, >400 colonies, single colonies still clearly recognizable; 5: Heavy growth, too many colonies to count, but no growth over the entire streak; 6: Full growth, barely any single colonies still apparent, growth over the entire streak; details: for Yeast growth Day 1: directly after inoculation; for Yeast growth Day 3: incubation at 30° C.
Experimental: (§1) The detergent was a heavy-duty laundry detergent without preservatives (pH 8.1), and the cleaning composition was an all-purpose detergent without preservatives (pH 7.6), each likewise made in the laboratory, without addition of the otherwise usual conventional preservatives. To each paint was added—individually and in combination—particular concentrations of guanidinium hydrochloride and benzisothiazolinone (BIT). The detergent and cleaning composition were admixed with particular concentrations of guanidinium hydrochloride and benzisothiazolinone (BIT). The resultant batches of the paint thus prepared were inoculated with a mixture of various bacteria; the batches of the detergent and cleaning composition thus prepared were inoculated with a yeast mixture. • Pichia manshurica DSM 12249 • Rhodotorula mucilaginosa DSM 12248 • Candida boidinii DSM 13622 • Candida albicans DSM 1386 The inoculum was added to the respective sample in each inoculation at 2% (v/w) as a fresh cell suspension in a physiological saline solution (0.9% NaCl). The cell count of the inoculum added was 10^9/ml for the bacteria mixture, 10^8/ml for the yeast mixture, consisting in equal parts of the individual bacteria strains or yeast strains. The cell suspension of the yeast mixture was produced by growing the yeasts on Sabouraud glucose-agar at 25° C. for 48 hours and washing down the cell lawn with physiological saline solution (0.9% NaCl). Further steps for establishment of a cell count of the inoculum suspension of 10^8/ml were effected analogously to the production of the bacteria suspension. In examples 2 to 4, the samples were inoculated once with the respective cell suspensions (2% v/w) and the development of the bacteria or yeasts was followed by a semiquantitative evaluation method. In the inoculated samples, microbial infestation was evaluated in each case directly after inoculation on day 1 and on day 6 (emulsion paint) after incubation at 30° C. for a further 5 days, or on day 3 (detergent, cleaning composition) after incubation at 30° C. for a further 2 days. For this purpose, an aliquot was taken from each sample after homogenization using a sterile plastic inoculation loop (10 μl) and streaked evenly on agar plates (tryptic soy agar in the case of bacteria, Sabouraud glucose-agar in the case of yeasts). The streaked agar plates were then incubated at 30° C. for 48 hours (bacteria) or at 25° C. for 72 hours (yeasts). After incubation, the bacterial or yeast colonies that had grown on the agar plates were visually evaluated and quantified according to the following scheme: [table] Inoculation 2% w/v with a East Mixture, Cell Count 10^8/ml

[3] = tested on: Pseudomonas spec. DSM 115322; test: Study of the synergistic interaction: minimum inhibitory concentrations (MICs) and synergy index in Müller-Hinton broth, microplates; details: 48 hours at 30° C.; for Synergy index Qa/QA + Qb/QB: sole agent
Experimental: The test organism used was a Gram-negative bacterial species from the group of pseudomonads, Pseudomonas spec. DSM 115322. For this purpose, mixtures with different concentrations of the respective actives were prepared and tested for their effect on pseudomonads. The test was run in Müller-Hinton broth MHB with a cell density of 10^6 microbes per ml. The incubation was run in microplates at 30° C. for 48 hours. After 48 hours, the batches were evaluated for turbidity resulting from growth, and optical density was additionally determined photometrically. In this way, the minimum inhibitory concentrations (MICs) of the two actives were determined individually and in combination. The synergism that occurred was represented numerically by calculating the synergy index (SI). The calculation was done according to the standard method of F. C. Kull et al., Applied Microbiology, vol. 9 (1961), p. 538. This involves calculating the synergy index (SI) by the following formula: […] Calculation of the synergy index of guanidine and BIT with respect to Pseudomonas spec.

[4] = tested on: Yeast mixture (Pichia manshurica DSM 12249, Rhodotorula mucilaginosa DSM 12248, Candida boidinii DSM 13622, Candida albicans DSM 1386); test: Stability of all-purpose detergent (cleaning composition) against microbial infestation, inoculated with yeast mixture, semiquantitative streak evaluation; design: key to Yeast growth Day 1: 0: No growth; Minimal growth, 1 to 10 colonies visible over the entire streak; 2: Light growth, maximum 100 colonies; Moderate growth, maximum 300 to 400 colonies; Uniform growth, >400 colonies, single colonies still clearly recognizable; 5: Heavy growth, too many colonies to count, but no growth over the entire streak; 6: Full growth, barely any single colonies still apparent, growth over the entire streak; details: for Yeast growth Day 1: directly after inoculation; for Yeast growth Day 3: incubation at 30° C.
Experimental: as §1, with “(w/v)” for “w/v”, “Yeast” for “a East”

[5] = all-purpose detergent +100 ppm BIT
[6] = emulsion paint +6000 ppm guanidine hydrochloride (3708 ppm guanidine)
[7] = detergent +8000 ppm guanidine hydrochloride (4944 ppm guanidine)
[8] = all-purpose detergent +8000 ppm guanidine hydrochloride (4944 ppm guanidine)

With O=c1[nH]sc2ccccc12 [BIT, 1,2-benzisothiazolin-3-one] the “Bacterial growth Day 1” value ([1]; emulsion paint +500 ppm BIT) was 6, the “Bacterial growth Day 6” value ([1]; emulsion paint +500 ppm BIT) was 6 and the “Yeast growth Day 1” value ([2]; detergent +100 ppm BIT) was 6. The “Yeast growth Day 3” value ([2]; detergent +100 ppm BIT) was 4 (Uniform growth, >400 colonies, single colonies still clearly recognizable), the “Qb (BIT): concentration of BIT as the sole agent that shows an endpoint (QB, MIC)” value ([3]; BIT alone (0 ppm guanidine), MHB, 10^6 microbes per ml) was 300 ppm and the “Synergy index Qa/QA + Qb/QB” value [3] was 1.00. For the same compound, the “Yeast growth Day 1” value [4, 5] was 6 and the “Yeast growth Day 3” value [4, 5] was 4 (Uniform growth, >400 colonies, single colonies still clearly recognizable).

With N=C(N)N [guanidine hydrochloride] the “Bacterial growth Day 1” value [1, 6] was 6, the “Bacterial growth Day 6” value [1, 6] was 6 and the “Yeast growth Day 1” value [2, 7] was 6. For the same compound, the “Yeast growth Day 3” value [2, 7] was 6, the “Yeast growth Day 1” value [4, 8] was 6 and the “Yeast growth Day 3” value [4, 8] was 4 (Uniform growth, >400 colonies, single colonies still clearly recognizable).

In the case of N=C(N)N [guanidine], the “Qa (guanidine): concentration of guanidine as the sole agent that shows an endpoint (QA, MIC)” value ([3]; guanidine alone (0 ppm BIT), added as guanidine hydrochloride, MHB) is reported as 9269 ppm and the “Synergy index Qa/QA + Qb/QB” value [3] is reported as 1.00.
